Measurements reported in patent US8604217B2, “Compound, a process for its preparation, a pharmaceutical composition, use of a compound, a method for modulating or regulating serine/threonine kinases and a serine/threonine kinases modulating agent” (Selvita S.A., priority 2009, dated 2013).

Tests used:
[1] = system: human myelomonocytic, biphenotypic leukemia MV4-11 cells; test: Growth inhibition test (MTS) on MV4-11 cells; assay type: cell-based; conditions: Homo sapiens, MV4-11, 72 hours, read-out: MV-4-11 ED50
Description: (§1) Ten thousand cells of human myelomonocytic, biphenotypic leukemia MV4-11 were inoculated into each well of a 96-well microplate (manufactured by Corning Corp.) using Iscove's MDM medium (culture medium) containing 10% fetal calf serum (FCS). Next day, a dimethyl sulfoxide (DMSO) solution of each test compound prepared in a concentration of 10 mmol/L was further diluted with culture medium to the desired concentrations (0.1, 0.5, 1, 2.5, 5 and 10 micromol/L), and the diluted solution was added to each well. The individual wells were further cultured in 5% carbon dioxide at 37° C. for 72 hours. After completion of the culture, 10 μl MTS (3-(4,5-Dimethyl-2-thiazolyl)-5-(carboxymethoxyphenyl)-2-(4-sulfophenyl)-2H-tetrazolium, inner salt assay (CellTiter96® AQueous One Solution Cell Proliferation Assay, Promega) was added to each well, and culturing was performed in 5% carbon dioxide at 37° C. for 2 hours. Using a microplate spectrophotometer (Synergy 2 multi-mode microplate reader (BioTek)), the absorbance of each well was measured at 490 nm. The value for cells not incorporated with a test compound was designated as 100%. By comparing these values with the absorbance difference obtained at the well in which each test compound was added, the cell viability (% viability) after treatment with the test compound was calculated.

[2] = system: human acute lymphocytic leukemia E6.1 Jurkat cells; test: Growth inhibition test (MTS) on E6.1 Jurkat cells; assay type: cell-based; conditions: 72 hours, read-out: Jurkat ED50
Description: as §1, with “Twenty” for “Ten”, “acute lumphocytic” for “myelomonocytic, biphenotypic”, “E6.1 Jurkat” for “MV4-11”, “[…]” for “Iscove's MDM”

[3] = system: human prostate adenocarcinoma PC3 cells; test: Growth inhibition test (MTS) on PC3 cells; assay type: cell-based; conditions: Homo sapiens, PC-3, 72 hours, read-out: PC-3 ED50
From the text: as §1, with “Two” for “Ten”, “prostate adenocarcinoma PC3” for “myelomonocytic, biphenotypic leukemia MV4-11”, “Corp.), and” for “Corp.)”, “F12K (Ham's F12:[…] 1:1)” for “Iscove's MDM”

[4] = system: human hepatoma HepG2 cells; test: Growth inhibition test (MTS) on HepG2 cells; assay type: cell-based; conditions: 72 hours, read-out: HepG2 ED50
Description: as §1, with “Two” for “Ten”, “hepatoma HepG2” for “myelomonocytic, biphenotypic leukemia MV4-11”, “DMEM” for “Iscove's MDM”

[5] = system: human breast adenocarcinoma MCF7 cells; test: Growth inhibition test (MTS) on MCF7 cells; assay type: cell-based; conditions: Homo sapiens, MCF7, 72 hours, read-out: MCF-7 ED50
Description: as §1, with “Two” for “Ten”, “breast adenocarcinoma MCF7” for “myelomonocytic, biphenotypic leukemia MV4-11”, “Corp.), and” for “Corp.)”, “DMEM” for “Iscove's MDM”

PIM-1 = PIM-1 (Homo sapiens (Human), UniProt P11309); test: Luminometric kinase assay for PIM1 kinase (Kinase-Glo); assay type: biochemical; conditions: 1 μM ATP, 25 min at RT
Description: Kinase assay was performed using luminescent Kinase-Glo® (Promega) system. The Kinase-Glo® Luminescent Kinase Assay Platform provides a homogeneous, high-throughput screening method for measuring kinase activity by quantifying the amount of ATP remaining in solution following a kinase reaction. The luminescent signal is correlated with the amount of ATP present and is inversely correlated with the kinase activity. Appropriate amounts of both kinase and substrate were mixed in 96-well, white wall plate in the reaction buffer (8 mM MOPS/NaOH, pH7.0, 0.2 mM EDTA, 2 mM MgCl2). Tested compounds were diluted in DMSO and serial dilutions starting with 1 μM were added to the palates. Reaction was initiated by adding 1 μM of ATP solution and conducted for 25 min. at RT. Luminescent signal was detected by adding Kinase-Glo® reagent and measured using a microplate spectrophotometer (Synergy 2 multi-mode microplate reader (BioTek)). IC50 values were obtained by fitting sigmoidal dose-response curve (variable slope) using GraphPad Prism software.

Sequence of PIM-1 (P11309 whole entry): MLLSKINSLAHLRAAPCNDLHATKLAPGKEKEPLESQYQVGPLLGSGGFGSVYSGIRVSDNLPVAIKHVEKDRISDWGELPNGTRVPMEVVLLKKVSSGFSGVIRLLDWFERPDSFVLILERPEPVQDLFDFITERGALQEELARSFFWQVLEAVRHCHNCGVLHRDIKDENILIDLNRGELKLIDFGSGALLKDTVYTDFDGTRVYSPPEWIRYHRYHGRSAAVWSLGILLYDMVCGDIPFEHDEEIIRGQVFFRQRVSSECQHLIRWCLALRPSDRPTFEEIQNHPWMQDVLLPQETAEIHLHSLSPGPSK

SMILES: Brc1c(Br)c(Br)c2[nH]c(Nc3ccc4ccccc4c3)nc2c1Br [Compound 259, 4,5,6,7-tetrabromo-N-(naphthalen-3-yl)-1H-benzo[d]imidazol-2-amine]
- IC50 [1]: 6.44 µM
- IC50 [2]: 7.11 µM
- IC50 [3]: 3.51 µM
- IC50 [4]: 5.49 µM
- IC50 [5]: 5.9 µM

SMILES: Brc1cccc(Nc2nc3c(Br)c(Br)c(Br)c(Br)c3[nH]2)c1 [Compound 236, 4,5,6,7-tetrabromo-N-(3-bromophenyl)-1H-benzo[d]imidazol-2-amine]
- IC50 [1]: 1.6 µM
- IC50 [2]: 4.4 µM
- IC50 [3]: 2.5 µM
- IC50 [4]: 2.2 µM
- IC50 [5]: 4.2 µM

SMILES: Brc1c(Br)c(Br)c2[nH]c(NC3CCCCCCC3)nc2c1Br [Compound 261, 4,5,6,7-tetrabromo-N-cyclooctyl-1H-benzo[d]imidazol-2-amine]
- IC50 [1]: 3.41 µM
- IC50 [2]: 4.52 µM
- IC50 [3]: 3.2 µM
- IC50 (PIM-1): 0.138 µM
- IC50 [4]: 4.29 µM
- IC50 [5]: 4.94 µM

SMILES: Nc1cc(Br)c(Br)cc1Nc1nc2c(Br)c(Br)c(Br)c(Br)c2[nH]1 [Compound 317, 4,5-dibromo-N1-(4,5,6,7-tetrabromo-1H-benzo[d]imidazol-2-yl)benzene-1,2-diamine]
- IC50 [1]: 3.95 µM
- IC50 [2]: 7.05 µM
- IC50 (PIM-1): 0.598 µM
- IC50 [4]: 4.33 µM
- IC50 [5]: 6.63 µM

SMILES: Brc1c(Br)c(Br)c2[nH]c(NCCN3CCN(c4ncccn4)CC3)nc2c1Br [Compound 247, 4,5,6,7-tetrabromo-N-(2-(4-(pyrimidin-2-yl)piperazin-1-yl)ethyl)-1H-benzo[d]imidazol-2-amine]
- IC50 [1]: 5.96 µM
- IC50 [2]: 7.84 µM
- IC50 (PIM-1): 0.109 µM
- IC50 [4]: 9.01 µM
- IC50 [5]: 7.15 µM

SMILES: CN(C)CCN(Cc1ccccc1)c1nc2c(Br)c(Br)c(Br)c(Br)c2[nH]1 [Compound 158, N-benzyl-4,5,6,7-tetrabromo-N-(2-(dimethylamino)ethyl)-1H-benzo[d]imidazol-2-amine]
- IC50 [1]: 4.86 µM
- IC50 [2]: 8.42 µM
- IC50 [3]: 8.83 µM
- IC50 (PIM-1): 0.0627 µM
- IC50 [4]: 3.58 µM
- IC50 [5]: 8.31 µM

SMILES: CN1CCCN(c2nc3c(Br)c(Br)c(Br)c(Br)c3[nH]2)CC1 [Compound 256, 4,5,6,7-tetrabromo-2-(4-methyl-1,4-diazepan-1-yl)-1H-benzo[d]imidazole]
- IC50 [1]: 2.6 µM
- IC50 [2]: 4.86 µM
- IC50 [3]: 5.18 µM
- IC50 [4]: 3.39 µM
- IC50 [5]: 5.11 µM

SMILES: CN(C)CC(CNc1nc2c(Br)c(Br)c(Br)c(Br)c2[nH]1)C(O)c1ccccc1 (stereo not shown) [Compound 272, 2-((4,5,6,7-tetrabromo-1H-benzo[d]imidazol-2-ylamino)methyl)-3-(dimethylamino)-1-phenylpropan-1-ol]
- IC50 [1]: 2.42 µM
- IC50 [2]: 2.76 µM
- IC50 [3]: 4.87 µM
- IC50 (PIM-1): 0.0433 µM
- IC50 [4]: 2.26 µM
- IC50 [5]: 4.51 µM

SMILES: Brc1c(Br)c(Br)c2[nH]c(N3CCCNCC3)nc2c1Br [Compound 260, 4,5,6,7-tetrabromo-2-(1,4-diazepan-1-yl)-1H-benzo[d]imidazole]
- IC50 [1]: 1.45 µM
- IC50 [2]: 5.35 µM
- IC50 [3]: 5.59 µM
- IC50 (PIM-1): 0.0299 µM
- IC50 [4]: 7.04 µM
- IC50 [5]: 5.65 µM

SMILES: N[C@@H]1CCCC[C@H]1Nc1nc2c(Br)c(Br)c(Br)c(Br)c2[nH]1 [Compound 304RR, (1R,2R)-N1-(4,5,6,7-tetrabromo-1H-benzo[d]imidazol-2-yl)cyclohexane-1,2-diamine]
- IC50 [1]: 0.25 µM
- IC50 [2]: 3.15 µM
- IC50 [3]: 3.16 µM
- IC50 (PIM-1): 0.00526 µM
- IC50 [4]: 2.64 µM
- IC50 [5]: 2.36 µM

SMILES: CN1CCC(N(C)CC(Nc2nc3c(Br)c(Br)c(Br)c(Br)c3[nH]2)c2ccccc2)CC1 (stereo not shown) [Compound 263, N-(4,5,6,7-tetrabromo-1H-benzo[d]imidazol-2-yl)-N′-methyl-N′-(1-methylpiperidin-4-yl)-1-phenylethane-1,2-diamine]
- IC50 [1]: 2.39 µM
- IC50 [2]: 2.56 µM
- IC50 [3]: 2.64 µM
- IC50 (PIM-1): 0.0475 µM
- IC50 [4]: 2.66 µM
- IC50 [5]: 2.76 µM

SMILES: COc1ccc(Nc2nc3c(Br)c(Br)c(Br)c(Br)c3[nH]2)cc1OC [Compound 307, 4,5,6,7-tetrabromo-N-(3,4-dimethoxyphenyl)-1H-benzo[d]imidazol-2-amine]
- IC50 [1]: 6.03 µM
- IC50 [2]: 8.97 µM
- IC50 [3]: 8.31 µM
- IC50 (PIM-1): 0.287 µM
- IC50 [4]: 1.23 µM
- IC50 [5]: 9.43 µM

SMILES: CN(C)CCN1CCC(CNc2nc3c(Br)c(Br)c(Br)c(Br)c3[nH]2)C1 (stereo not shown) [Compound 166, 4,5,6,7-tetrabromo-N-((1-(2-(dimethylamino)ethyl)pyrrolidin-3-yl)methyl)-1H-benzo[d]imidazol-2-amine]
- IC50 [1]: 1.19 µM
- IC50 [2]: 4.92 µM
- IC50 [3]: 3.15 µM
- IC50 (PIM-1): 0.051 µM
- IC50 [4]: 2.62 µM
- IC50 [5]: 4.93 µM
